Data from patent US20250129083A1, “IMIDAZOTETRAZINE COMPOUNDS AND TREATMENT OF TMZ-RESISTANT CANCERS” (THE BOARD OF TRUSTEES OF THE UNIVERSITY OF ILLINOIS, priority 2022, published 2025).
Read-outs that look alike come from different tables or passages of the source.

Key:
[1] = system: S. typhimurium TA100 strain; experiment: Ames test, TA100; assay type: cell-based; settings: 30 μM; for Ames test revertant (mutated) colonies, TA100: 5 days, no S9 activation
Procedure: Next, we measured the mutagenicity of CPZ versus TMZ. TMZ and other DNA methylating chemotherapies are known mutagens, inducing G:C→A:T mutations due to erroneous recognition of O^6-methylguanine. […] CPZ and TMZ (at 30 μM) were also assessed in the E. coli WP2 uvrA pKM101 strain, which is considered one of the more sensitive Ames tester strains available.
Ames Test. Compounds were assessed at the indicated concentrations in the TA100 tester strain using the Muta-ChromoPlate 96-well microplate version of the Ames test (Environmental Bio-Detection Products, Prod. No. 5051) according to manufacturer's instructions. In brief, TA100 S. typhimurium bacteria were grown overnight and plated with compound, growth medium, and indicator (no S9 activation) in 96 well plates. Bacteria were incubated for 5 days before the number of wells per 96 well plate containing revertant colonies were identified colorimetrically.

genomic DNA of D54 cells = experiment: Quantitation of O6-guanine DNA adducts in cells, D54; assay type: cell-based; settings: MGMT-negative; LC-MS/MS
Procedure: Importantly, because CPZ was designed to release a different active species than TMZ, the alkylation pattern in a cellular context is likely different. Therefore, to assess if alkylation still occurs with CPZ, a DNA alkylation assay was performed. GL261 cells were treated with 100, 300, or 500 μM TMZ or CPZ for 8 hours after which the cells were harvested and genomic DNA was extracted and subsequently hydrolyzed to constituent deoxyribonucleosides. LC-MS/MS analysis was employed to quantify the amount of O^6-methyl-2′-deoxyguanosine (O^6-Me-dG) or O^6-propargylated-2′-O^6-deoxyguanosine (O^6-Prop-dG) in each sample.
Quantitation of O^6-guanine DNA Adducts in Cells. GL261, A172, or D54 cells were plated at 1×10^6 c/w in a 6-well plate before they were treated with compound at the indicated concentration (1% final concentration DMSO). After incubation for the indicated time, the cells were harvested and pelleted. Genomic DNA was extracted using the DNeasy Blood & Tissue Kit (Qiagen, ID: 69504). DNA was then precipitated using the following procedure: 1/10 v/v […] sodium acetate (pH 5.2) and 2.5× v/v ethanol was added to each sample which was then kept at −80° C. for 1 h. […] Hydrolyzed samples were then submitted for LC-MS/MS quantitation along with a synthetic standard. Samples were analyzed with a 5500 QTRAP LC/MS/MS system (AB Sciex) with a 1200 series HPLC system (Agilent).

Brain tissue binding = assay type: in vitro ADME; settings: 10 uM, 1 h at 37 C in brain tissue homogenate
GL261 cells = experiment: Cell viability assay (Alamar Blue, 7 days), GL261; assay type: cell-based; settings: Mus musculus, GL261, 168 h
Procedure: (§1) Cell Culture and Reagents. All cell lines were grown in a 37° C., 5% CO2, humidified environment, in media containing 1% penicillin/streptomycin. Stable cell line generation of GL261 MGMT+ was purchased from Creative Biogene. Cell culture conditions are as follows: cell lines U87, T98G, and RKO were grown in EMEM with 10% FBS. D54, GL261, GL261 MGMT+, and U118MG cell lines were grown in DMEM with 10% FBS. HCT116 cells were grown in RMPI with 10% FBS. D341 Med cells were grown in EMEM with 20% FBS. Temozolomide (TMZ) was purchased from AK Scientific. TMZ analogues were synthesized as described below. Compounds were dissolved in DMSO (1% final concentration, Fisher Chemical) for cell culture studies.
(§2) Cell Viability Assays. Cells were harvested, seeded in a 96-well plate and allowed to adhere. After three hours, compound was added to each well in DMSO (1% final concentration). Cells were incubated for seven days (unless otherwise noted) before viability was assessed by the Alamar Blue assay. Raptinal (20 μM) was used as a dead control.
(§3) Plated 1500 c/w for GL261; 600 c/w for U87; 600 c/w for U118MG; 1500 c/w for GL261 MGMT+ Incubated ovn and added 1 μL of compound in DMSO the next day. Incubated over 7 days; added Alamar Blue to assess cell viability and used 10 μM Raptinal as dead control. Error is SEM, n=3.

GL261 MGMT+ cells = experiment: Cell viability assay (Alamar Blue, 7 days), GL261 MGMT+; assay type: cell-based; settings: Mus musculus, GL261, 168 h
Procedure: To further explore the ability of CPZ to evade MGMT-mediated resistance, MGMT-expressing T98G cells were pretreated with MGMT inhibitor O6BG followed by treatment with TMZ or CPZ. […] This cell death potentiation by TMZ upon treatment with an MGMT inhibitor was also observed in MGMT-expressing cell lines U118MG and RKO, whereas the efficacy of CPZ was again unaffected. For MGMT (−)/MMR (−) HCT116 cells, negligible potentiation of TMZ cytotoxicity was observed upon pretreatment with O6BG, confirming that loss of MMR capacity, not MGMT expression, was responsible for resistance to TMZ in HCT116 cells. Additionally, human MGMT was knocked into the MGMT-negative mouse glioma cell line, GL261, establishing the novel cell line GL261 MGMT+.
as §1, §2, §3

[2] = system: expanded panel of GBM cell lines with or without MGMT expression; experiment: Cell viability in expanded panel of GBM cell lines; assay type: cell-based; settings: for IC50: 168 h, 7 day
Procedure: FIG. 1A-C. Selection and evaluation of MGMT-independent imidazotetrazines. (A) IC50 values (M, 7 days) of TMZ and compound 10 in an expanded panel of GBM cell lines. Cell viability was assessed via the Alamar Blue assay, n≥3, error is SEM. (B) Hydrolytic stability of TMZ at pH 7, 7.4, and 8. Percentage of prodrug remaining was quantified by HPLC, n≥2. (C) Hydrolytic stability of compound 10 at pH 7, 7.4, and 8. Percentage of prodrug remaining was quantified by HPLC, n≥2.
FIG. 2A-F. (A) 7 day IC50 values (M) of compound 10 and CPZ in an expanded panel of GBM cell lines. Cell viability was assessed via the Alamar Blue assay, n≥3, error is SEM. (B-E) 7 day dose-response curves of TMZ and CPZ in cell lines with variable MGMT and MMR status. Error is SEM, n≥3. (F) Killing kinetics of CPZ compared to TMZ in the U87 cell line. Cells were treated with compound once and viability was assessed every 24 hours via Alamar Blue assay. Error is SEM, n≥2.
as §2

[3] = 7 day dose-response, read-out: IC50, GL261 (parental)
[4] = MGMT (−) MMR (+), 7 days, 1500 c/w, SEM, n=3, read-out: Activity, GL261
[5] = 7 day dose-response, human MGMT knock-in, read-out: IC50, GL261 MGMT+
[6] = MGMT (+) MMR (+), 7 days, 1500 c/w, SEM, n=3, read-out: Activity, GL261 MGMT+

Row | SMILES | Mutagenicity, TA100 [1] | Ames test revertant (mutated) colonies, TA100 [1] | O6-dG alkylation adducts, D54 (genomic DNA of D54 cells) | Brain tissue binding, insoluble fraction, tissue homogenizer (Brain tissue binding) [%] | Brain tissue binding, insoluble fraction, ultrasonication (Brain tissue binding) [%] | Brain tissue binding, soluble fraction, tissue homogenizer (Brain tissue binding) [%] | Brain tissue binding, soluble fraction, ultrasonication (Brain tissue binding) [%] | IC50 (GL261 cells; [3]) [µM] | IC50 (GL261 cells; [4]) [µM] | IC50 (GL261 MGMT+ cells; [5]) [µM] | IC50 (GL261 MGMT+ cells; [6]) [µM] | Difference in IC50 values between MGMT-negative and positive cell lines ([2]; expanded GBM panel) [fold] | IC50 ([2]; read-out: Average IC50 in MGMT (+) cell lines) [µM] | IC50 ([2]; read-out: Average IC50 in MGMT (−) cell lines) [µM]
1 | Cn1nnc2c(C(N)=O)ncn2c1=O [TMZ, temozolomide, reference compound] | mutagenic | 35/96 | dose-dependent increase in methyl adducts | 40 ± 5 | 30 ± 3 | 59 ± 5 | 66 ± 3 | 120 | 120 ± 62 | > 1000 | > 1000 | > 6 |  | 
2 | C#CCn1nnc2c(Cl)ncn2c1=O [CPZ, 8-chloro-3-(prop-2-yn-1-yl)imidazo[5,1-d][1,2,3,5]tetrazin-4(3H)-one] | non-mutagenic | no revertant colonies | did not harbor measurable levels of the propargyl adduct |  |  |  |  | 28 | 28 ± 3 | 29 | 29 ± 5 |  | 22 | 16
